Values of other authors, collected in US20140050728A1, “METHODS AND COMPOSITIONS FOR INHIBITING CYCLOPHILIN D FOR THE TREATMENT AND PREVENTION OF OBESITY AND KIDNEY INDICATIONS” (BOARD OF REGENTS OF THE UNIVERSITY OF NEBRASKA, priority 2011, published 2014).

Settings: for weight loss in clinical trials: none of the trials achieved the NIH effectiveness threshold

Compound | weight loss in clinical trials | cardiovascular risk associated with use (banned in Europe, cautioned by U.S. FDA)
CCCCCCCCCCC[C@@H](C[C@@H]1OC(=O)[C@H]1CCCCCC)OC(=O)[C@H](CC(C)C)NC=O [orlistat] | modest weight loss | 
CC(C)CC(N(C)C)C1(c2ccc(Cl)cc2)CCC1 (stereo not drawn) [sibutramine] | modest weight loss | increased cardiovascular risk
